Test system: P388 leukemia
Experiment: In vivo antitumor activity, P388 leukemia implanted iv, drug iv;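 for % T/C: median survival time of treated over control mice times 100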;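 for T/C: median survival time of treated over control mice times 100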
Set-up: species or system mouse
Method: The in vivo antitumor activity of BMY-41339 was determined in the standard P388 mouse leukemia model. A summary of the experiments performed using BMY-41339 is provided below.
DBA/2 and (Balb/c × DBA/2)F1 (CDF1) hybrid mice were purchased from Charles River Breeding Co. (Wilmington, MA). They were provided food and water ad libitum.
The P388 murine ascites leukemia was maintained by weekly in vivo passage in DBA/2 mice.
Esperamicin A1 and BMY-41339 were dissolved in ethanol. Further dilutions were made with 0.9% NaCl (saline) until the ethanol concentration (v/v) was 10%. All administrations were made, therefore, in a 10% ethanol in saline vehicle. For ip injections, the concentration of compound was adjusted according to the average initial body weight of each group of mice to be injected such that the desired dose would be contained in a 0.5 ml injection volume. The same procedure was used for iv compound administration except the injection volume was 0.2 ml.
Antitumor experiments were initiated by implanting […] P388 leukemia cells either ip or iv into CDF1 mice. BMY-41339 and esperamicin A1 (included as a positive reference compound), were injected either ip in mice implanted ip with P388, or iv in mice implanted iv with P388 on Day 2 post-implant only Eight different dose levels of BMY-41339, at two-fold increments, were evaluated in each of the two experiments performed.
A % T/C value of ≥ 125 was considered indicative of activity in these models.

[1] = Exp. 8102, iv, 0.025 mg/kg/dose
[2] = Exp. 8102, iv, same doses up to 3.2 μg/kg
[3] = Exp. 8109, iv, 0.025 mg/kg/dose

C=C(OC)C(=O)Nc1cc(OC)c(OC)cc1C(=O)OC1CC(OC2C(=O)C(NC(=O)OC)=C3C(=CCSSSSC)C2(O)C#CC=CC#CC3OC2OC(C)C(NOC3CC(O)C(SC)C(C)O3)C(O)C2OC2CC(OC)C(NC(C)C)CO2)OC(C)C1O (stereo not drawn) [BMY-41339]
% T/C [1]: 100% | Avg. wt. change on day 6 [1]: 0.4 grams | Survivors on Day 5 [1]: 6/6 | % T/C (Exp. 8102, iv, 0.05 mg/kg/dose): 100% | Avg. wt. change on day 6 (Exp. 8102, iv, 0.05 mg/kg/dose): 0.1 grams | Survivors on Day 5 (Exp. 8102, iv, 0.05 mg/kg/dose): 6/6 | % T/C (Exp. 8102, iv, 0.1 mg/kg/dose): 106% | Avg. wt. change on day 6 (Exp. 8102, iv, 0.1 mg/kg/dose): 0.4 grams | Survivors on Day 5 (Exp. 8102, iv, 0.1 mg/kg/dose): 6/6 | % T/C (Exp. 8102, iv, 0.2 mg/kg/dose): 100% | Avg. wt. change on day 6 (Exp. 8102, iv, 0.2 mg/kg/dose): -0.3 grams | Survivors on Day 5 (Exp. 8102, iv, 0.2 mg/kg/dose): 6/6 | % T/C (Exp. 8102, iv, 0.4 mg/kg/dose): 100% | Avg. wt. change on day 6 (Exp. 8102, iv, 0.4 mg/kg/dose): -0.4 grams | Survivors on Day 5 (Exp. 8102, iv, 0.4 mg/kg/dose): 6/6 | % T/C (Exp. 8102, iv, 0.8 mg/kg/dose): 100% | Avg. wt. change on day 6 (Exp. 8102, iv, 0.8 mg/kg/dose): -0.3 grams | Survivors on Day 5 (Exp. 8102, iv, 0.8 mg/kg/dose): 6/6 | % T/C (Exp. 8102, iv, 1.6 mg/kg/dose): 100% | Avg. wt. change on day 6 (Exp. 8102, iv, 1.6 mg/kg/dose): -0.1 grams | Survivors on Day 5 (Exp. 8102, iv, 1.6 mg/kg/dose): 6/6 | % T/C (Exp. 8102, iv, 3.2 mg/kg/dose): 113% | Avg. wt. change on day 6 (Exp. 8102, iv, 3.2 mg/kg/dose): -0.2 grams | Survivors on Day 5 (Exp. 8102, iv, 3.2 mg/kg/dose): 6/6 | effectiveness versus iv-implanted leukemia [2]: not effective | maximum tolerated dose reached [2]: no indication of having reached a maximum tolerated dose | T/C (Exp. 8109, iv, 16 μg/kg): 139% | % T/C [3]: 100% | Avg. wt. change on day 6 [3]: 0.4 grams | Survivors on Day 5 [3]: 6/6 | T/C (Exp. 8109, iv, 32 μg/kg): 156% | % T/C (Exp. 8109, iv, 0.05 mg/kg/dose): 100% | Avg. wt. change on day 6 (Exp. 8109, iv, 0.05 mg/kg/dose): 0.1 grams | Survivors on Day 5 (Exp. 8109, iv, 0.05 mg/kg/dose): 6/6 | % T/C (Exp. 8109, iv, 0.1 mg/kg/dose): 106% | Avg. wt. change on day 6 (Exp. 8109, iv, 0.1 mg/kg/dose): 0.4 grams | Survivors on Day 5 (Exp. 8109, iv, 0.1 mg/kg/dose): 6/6 | % T/C (Exp. 8109, iv, 0.2 mg/kg/dose): 100% | Avg. wt. change on day 6 (Exp. 8109, iv, 0.2 mg/kg/dose): -0.3 grams | Survivors on Day 5 (Exp. 8109, iv, 0.2 mg/kg/dose): 6/6 | % T/C (Exp. 8109, iv, 0.4 mg/kg/dose): 100% | Avg. wt. change on day 6 (Exp. 8109, iv, 0.4 mg/kg/dose): -0.4 grams | Survivors on Day 5 (Exp. 8109, iv, 0.4 mg/kg/dose): 6/6 | % T/C (Exp. 8109, iv, 0.8 mg/kg/dose): 100% | Avg. wt. change on day 6 (Exp. 8109, iv, 0.8 mg/kg/dose): -0.3 grams | Survivors on Day 5 (Exp. 8109, iv, 0.8 mg/kg/dose): 6/6 | % T/C (Exp. 8109, iv, 1.6 mg/kg/dose): 100% | Avg. wt. change on day 6 (Exp. 8109, iv, 1.6 mg/kg/dose): -0.1 grams | Survivors on Day 5 (Exp. 8109, iv, 1.6 mg/kg/dose): 6/6 | % T/C (Exp. 8109, iv, 3.2 mg/kg/dose): 113% | Avg. wt. change on day 6 (Exp. 8109, iv, 3.2 mg/kg/dose): -0.2 grams | Survivors on Day 5 (Exp. 8109, iv, 3.2 mg/kg/dose): 6/6 | increases in lifespan (Exp. 8109, iv, at two dose levels evaluated): active increases | activity against disseminated iv implanted P388 leukemia (conclusion, when adequate dosage was administered): active against the disseminated iv implanted P388 leukemia model
